Measured values as given in PubChem BioAssay AID248 (DTP/NCI, 2004).
Several values for one entry are separate records, joined by “and”; a condition that tells them apart may be missing. Equal entries are not always repeated. Inconclusive results and toxic doses are left out. Rule as the data show it: active = T/C of 150% or more; inactive = T/C below 125%.

Test system: L1210 leukemia ip in BDF1 mice, survival T/C
Assay: NCI In Vivo Anticancer Drug Screen. Data for tumor model L1210 Leukemia (intraperitoneal) in B6D2F1 (BDF1) mice
Details: endpoint: mean survival time, higher = longer survival
Method in brief: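 In this screen, tumor-bearing mice given compound are compared to those given vehicle, and their survival values are reported as a treated-to-control quotient.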

[1] = dose: 75.0 mg/kg/injection, schedule: Q01DX001 (ip), vehicle: saline
[2] = dose: 150.0 mg/kg/injection, schedule: Q01DX001 (ip), vehicle: saline
[3] = dose: 200.0 mg/kg/injection, schedule: Q01DX001 (ip), vehicle: Klucel (hydroxypropylcellulose) (HPC)
[4] = dose: 100.0 mg/kg/injection, schedule: Q01DX009 (ip), vehicle: saline
[5] = dose: 200.0 mg/kg/injection, schedule: Q01DX009 (ip), vehicle: saline
[6] = dose: 400.0 mg/kg/injection, schedule: Q01DX009 (ip), vehicle: saline
[7] = dose: 100.0 mg/kg/injection, schedule: Q01DX001 (ip), vehicle: Klucel (hydroxypropylcellulose) (HPC)
[8] = dose: 100.0 mg/kg/injection, schedule: Q04DX003 (ip), vehicle: saline with Tween-80
[9] = dose: 200.0 mg/kg/injection, schedule: Q04DX003 (ip), vehicle: saline with Tween-80
[10] = dose: 400.0 mg/kg/injection, schedule: Q04DX003 (ip), vehicle: saline with Tween-80
[11] = dose: 50.0 mg/kg/injection, schedule: Q01DX009 (ip), vehicle: saline
[12] = dose: 100.0 mg/kg/injection, schedule: Q04DX003 (ip), vehicle: saline
[13] = dose: 200.0 mg/kg/injection, schedule: Q04DX003 (ip), vehicle: saline
[14] = dose: 100.0 mg/kg/injection, schedule: Q01DX009 (ip), vehicle: Klucel (hydroxypropylcellulose) (HPC)
[15] = dose: 200.0 mg/kg/injection, schedule: Q01DX009 (ip), vehicle: Klucel (hydroxypropylcellulose) (HPC)
[16] = dose: 400.0 mg/kg/injection, schedule: Q01DX009 (ip), vehicle: Klucel (hydroxypropylcellulose) (HPC)
[17] = dose: 100.0 mg/kg/injection, schedule: Q01DX009 (ip), vehicle: saline with Tween-80

Measured: T/C

CCOP(=O)(Cc1ccc(N(CCI)CCI)cc1)OCC
inactive: [1] 116 % of control | [2] 116 % of control

COc1cc(-c2c3c(cc4c2OCO4)CC(O)C(C(=O)O)C3)cc(OC)c1OC (stereo unspecified)
inactive: [1] 95 % of control | [2] 116 % of control | [3] 109 % of control | dose: 200.0 mg/kg/injection, schedule: Q01DX001 (ip), vehicle: saline 114 % of control | dose: 300.0 mg/kg/injection, schedule: Q01DX001 (ip), vehicle: Klucel (hydroxypropylcellulose) (HPC) 116 % of control

N#CCCSCCc1ccccc1
inactive: dose: 75.0 mg/kg/injection, schedule: Q01DX009 (ip), vehicle: saline with Tween-80 91 % of control | dose: 150.0 mg/kg/injection, schedule: Q01DX009 (ip), vehicle: saline with Tween-80 96 % of control

NC(=O)NOCC1NC(=O)NC1=O (stereo unspecified)
inactive: [4] 96 % of control | [5] 102 % of control | [6] 102 % of control

CCOC(=O)Nc1ccccc1C
inactive: dose: 100.0 mg/kg/injection, schedule: Q04DX003 (ip), vehicle: Klucel (hydroxypropylcellulose) (HPC) 95 % of control | dose: 200.0 mg/kg/injection, schedule: Q04DX003 (ip), vehicle: Klucel (hydroxypropylcellulose) (HPC) 100 % of control | dose: 222.0 mg/kg/injection, schedule: Q01DX Z (ip), vehicle: methylcellulose (MC) 101 % of control | dose: 333.0 mg/kg/injection, schedule: Q01DX Z (ip), vehicle: methylcellulose (MC) 101 % of control | dose: 400.0 mg/kg/injection, schedule: Q04DX003 (ip), vehicle: Klucel (hydroxypropylcellulose) (HPC) 94 % of control

CCOc1ccc(NC(C)=O)cc1CN(CCCl)CCBr
inactive: [7] 97 % of control | [3] 111 % of control | dose: 400.0 mg/kg/injection, schedule: Q01DX001 (ip), vehicle: Klucel (hydroxypropylcellulose) (HPC) 100 % of control

NC1C2C3CCC(C(C(=O)O)C3C(=O)O)C12 (stereo unspecified)
inactive: [8] 89 % of control | [9] 110 % of control | [10] 100 % of control

CCNC(=O)CS(=O)(=O)c1ccc(C)cc1
inactive: [8] 101 % of control | [9] 94 % of control | [10] 97 % of control

O/N=C/C=N/O.O/N=C/C=N/O.[Cl][Rh][Cl]
inactive: [11] 107 % of control | dose: 50.0 mg/kg/injection, schedule: Q04DX003 (ip), vehicle: saline 100 % of control | [4] 101 % of control | [12] 104 % of control | [5] 95 % of control | [13] 102 % of control | [6] 94 % of control | dose: 400.0 mg/kg/injection, schedule: Q04DX003 (ip), vehicle: saline 98 % of control

Cc1noc(NC(=O)Nc2ccccc2C(F)(F)F)c1C
inactive: [14] 95 % of control and 103 % of control | dose: 100.0 mg/kg/injection, schedule: Q04DX002 (ip), vehicle: Klucel (hydroxypropylcellulose) (HPC) 92 % of control and 97 % of control | [15] 92 % of control and 118 % of control | dose: 200.0 mg/kg/injection, schedule: Q04DX002 (ip), vehicle: Klucel (hydroxypropylcellulose) (HPC) 101 % of control and 119 % of control | [16] 101 % of control | dose: 400.0 mg/kg/injection, schedule: Q04DX002 (ip), vehicle: Klucel (hydroxypropylcellulose) (HPC) 105 % of control and 116 % of control

CNC(=O)C1OC(n2cnc3c(N)ncnc32)C2OC(C)(C)OC12 (stereo unspecified)
inactive: dose: 100.0 mg/kg/injection, schedule: Q01DX005 (ip), vehicle: saline 97 % of control | dose: 200.0 mg/kg/injection, schedule: Q01DX005 (ip), vehicle: saline 101 % of control

CC(=O)NC1CCCC2CCCCC21 (stereo unspecified)
inactive: [17] 94 % of control and 99 % of control | [8] 93 % of control | dose: 200.0 mg/kg/injection, schedule: Q01DX009 (ip), vehicle: saline with Tween-80 109 % of control and 100 % of control | [9] 94 % of control | dose: 400.0 mg/kg/injection, schedule: Q01DX009 (ip), vehicle: saline with Tween-80 103 % of control | [10] 94 % of control

CC(=O)OCC1OC(O)C(NC(=O)C(F)(F)F)C(OC(C)=O)C1OC(C)=O (stereo unspecified)
inactive: dose: 12.5 mg/kg/injection, schedule: Q04DX003 (ip), vehicle: saline 109 % of control | dose: 25.0 mg/kg/injection, schedule: Q04DX003 (ip), vehicle: saline 96 % of control

COc1ccc(C(=O)C(Br)C(Br)C(=O)O)cc1 (stereo unspecified)
inactive: dose: 12.5 mg/kg/injection, schedule: Q01DX009 (ip), vehicle: saline with Tween-80 93 % of control | dose: 25.0 mg/kg/injection, schedule: Q01DX009 (ip), vehicle: saline with Tween-80 102 % of control | dose: 25.0 mg/kg/injection, schedule: Q01DX009 (ip), vehicle: saline 102 % of control | dose: 25.0 mg/kg/injection, schedule: Q04DX003 (ip), vehicle: saline with Tween-80 98 % of control and 103 % of control | dose: 50.0 mg/kg/injection, schedule: Q01DX009 (ip), vehicle: saline with Tween-80 104 % of control | [11] 100 % of control and 94 % of control | dose: 50.0 mg/kg/injection, schedule: Q04DX003 (ip), vehicle: saline with Tween-80 100 % of control and 101 % of control and 103 % of control | dose: 66.0 mg/kg/injection, schedule: Q04DX003 (ip), vehicle: saline 102 % of control | [17] 86 % of control | [4] 97 % of control and 89 % of control | [8] 100 % of control and 104 % of control and 107 % of control | [12] 106 % of control and 122 % of control and 92 % of control | dose: 150.0 mg/kg/injection, schedule: Q04DX003 (ip), vehicle: saline 111 % of control | [13] 108 % of control

CC1=C(C)C2(C)C(C)(O)C(C)(O)C12C (stereo unspecified)
inactive: dose: 75.0 mg/kg/injection, schedule: Q01DX001 (ip), vehicle: acetone 97 % of control | dose: 75.0 mg/kg/injection, schedule: Q04DX003 (ip), vehicle: saline with Tween-80 87 % of control | dose: 150.0 mg/kg/injection, schedule: Q01DX001 (ip), vehicle: acetone 102 % of control | dose: 300.0 mg/kg/injection, schedule: Q01DX001 (ip), vehicle: acetone 102 % of control

CCOC(=O)c1ccc(NC(=O)Oc2ccccc2OCC)cc1
inactive: [14] 97 % of control | [15] 95 % of control | [16] 90 % of control

O=C(OC(c1c(Cl)cccc1Cl)c1nccc2ccccc12)c1ccccc1 (stereo unspecified)
inactive: dose: 100.0 mg/kg/injection, schedule: Q01DX001 (ip), vehicle: steriod suspending solution 95 % of control | dose: 200.0 mg/kg/injection, schedule: Q01DX001 (ip), vehicle: steriod suspending solution 97 % of control | dose: 400.0 mg/kg/injection, schedule: Q01DX001 (ip), vehicle: steriod suspending solution 88 % of control

CC(C)(C)N=O
inactive: [7] 103 % of control | [3] 114 % of control
